# Data reported in paper PMC11997999, “Uncovering α-Selectivity for Liver X Receptor Agonists for Lipotoxic Cancer Therapies” (Journal of Medicinal Chemistry, 2025).
# Tested on: Hep3B cells
# Assay: Oxidative stress in Hep3B cells (CellROX Green Reagent, FACS)
# Assay type: cell-based, human
# Settings: 3 days, 3 μM LXR agonist + 1 μM sorafenib
# Description: We previously described that our established lipotoxic therapy triggers oxidative stress and an ER stress response, which finally leads to apoptosis in tumor cells.[6]
# The determination of oxidative stress levels was performed using CellROX Green Reagent from Thermo Fischer Scientific in Hep3B cells. Measurement of green fluorescence was performed using the FACS LSRFortessa cell analyzer (BD Bioscience, Flow Cytometry Core Facility Tuebingen) after 3 days of treatment. Data were collected using DIVA software (v9.0.1).
smiles,measurement,value
"O=C1C(Nc2ccc(N3CCCCC3)cc2)=C(c2ccccc2)C(=O)N1Cc1ccccc1 [Compound 40, 1-Benzyl-3-phenyl-4-((4-(piperidin-1-yl)phenyl)amino)-1H-pyrrole-2,5-dione]",oxidative stress induction in combination with sorafenib,"more efficient in inducing oxidative stress than GW3965 (2), GSK3987 (3), and AZ876 (4)"
